{"source": "paper PMC11766273", "about": "“Design, Synthesis, Anticancer Screening, and Mechanistic Study of Spiro-N-(4-sulfamoyl-phenyl)-1,3,4-thiadiazole-2-carboxamide Derivatives” (International Journal of Molecular Sciences, 2025)", "key": {"hCA XII": {"molecular_target": "hCA XII (Homo sapiens, UniProt O43570)", "sequence (O43570 25-354)": "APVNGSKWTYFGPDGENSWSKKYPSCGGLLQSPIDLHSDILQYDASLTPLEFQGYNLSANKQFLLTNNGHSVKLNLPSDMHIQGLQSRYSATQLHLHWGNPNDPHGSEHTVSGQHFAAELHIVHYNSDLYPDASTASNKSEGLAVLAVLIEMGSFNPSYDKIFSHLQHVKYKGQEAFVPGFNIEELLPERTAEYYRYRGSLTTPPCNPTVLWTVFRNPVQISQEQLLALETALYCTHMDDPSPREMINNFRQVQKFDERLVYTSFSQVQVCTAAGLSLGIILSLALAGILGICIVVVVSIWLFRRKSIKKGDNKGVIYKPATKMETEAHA", "parameters": "method as in PMID 35671645, PMID 37577088, PMID 30978604, PMID 37776683", "conditions": "printed in Figure 1 for reported compounds; cited from earlier work"}, "hCA IX": {"molecular_target": "hCA IX (Homo sapiens, UniProt Q16790)", "parameters": "method as in PMID 35671645, PMID 37577088, PMID 30978604, PMID 37776683", "conditions": "printed in Figure 1 for reported compounds; cited from earlier work"}, "[1]": {"test_system": "renal RXF393 cancer cell line", "assay": "MTT cell viability assay", "conditions": "for % viability: rxf393", "procedure": "(§1) The growth percentage was calculated at different drug concentration\nlevels and at different times.\n(§2) and WI 38 cell lines was determined utilizing established MTT test procedures.\n(§3) All cell lines utilized were acquired from the Vacsera Cell Culture Library, Tissue\n(§4) Culture Unit, Cairo, Egypt, with ATCC provenance.\n(§5) concentrations that inhibited 50% of cell growth were tested three times, and the mean\n(§6) was computed. Cells were grown in DMEM (Invitrogen/Life Technologies) augmented\n(§7) with 10% FBS (Hyclone), 10 mg/ml of insulin (Sigma), and 1% penicillin-streptomycin.\n(§8) Seed cells (density 1.2–1.8×10,000 cells/well) in 100 mL of complete growth medium and\n(§9) 100 mL of the tested chemical per well in a 96-well plate for 24 h before the MTT testing.\n(§10) In a standard experiment, 100 mL of serially diluted sterile testing substances were\n(§11) introduced to achieve final concentrations ranging from 0.01 to 100 mM, utilizing\n(§12) growth media as a negative control. Following 24 h of culture incubation, the\n(§13) supernatants were discarded. The LOX IMVI, HT29, and RXF393 cell lines were\n(§14) subjected to trypsinization and rinsed with calcium/magnesium-free PBS (pH 7.2). We\n(§15) transferred cultures from the incubator to a laminar flow hood or sterile workspace.\n(§16) Each test must incorporate a blank, providing complete media\n(§17) balanced salt solution devoid of phenol red and serum. Incorporate reconstituted MTT\n(§18) at a volume constituting 10% of the culture medium—re-incubate cultures for 2 to 4 h,\n(§19) contingent upon cell type and optimal cell density. Upon completion of the incubation\n(§20) period, the cultures from the incubator are extracted, and the resultant formazan\n(§21) crystals are dissolved by adding an equivalent volume of MTT Solubilization Solution\nAbsorbance was spectrophotometrically\n(§22) measured at a wavelength of 570 nm. Quantify the background absorbance of multi-\n(§23) well plates at 690 nm and deduct this value from the data at 450 nm. Data from all\n(§24) experiments were documented, and the viability percentage of cells was computed."}, "in vitro": {"assay": "in vitro", "conditions": "human, WI 38 normal cells", "procedure": "as §1\nlevels and at different times.\nas §2, §3, §4, §5, §6, §7, §8, §9, §10, §11, §12, §13, §14, §15, §16, §17, §18, §19, §20, §21\nAbsorbance was spectrophotometrically\nas §22, §23, §24"}, "renal RXF393 cell line": {"test_system": "renal RXF393 cell line", "assay": "Apoptosis assay (Annexin V-FITC/PI)", "assay_type": "cell-based, human", "conditions": "RXF393 treated at IC50"}, "RXF393 cells": {"test_system": "RXF393 cells", "assay": "Cell cycle analysis (propidium iodide flow cytometry)", "conditions": "RXF393 treated at IC50", "procedure": "The impact of the target compound on cell cycle progression in the RXF393 cancer cell line was evaluated against doxorubicin as a positive control and untreated RXF393 as a negative control, utilizing a flow cytometry assay.\nwas assessed utilizing the Propidium Iodide Flow Cytometry Kit to quantify DNA\ncontent following established protocols.\nRXF393 cells were treated with the IC50 concentration of the target compound"}, "[2]": {"test_system": "melanoma LOX IMVI cancer cell line", "assay": "MTT cell viability assay", "conditions": "for % viability: LOXIMVI", "procedure": "as §1\nlevels and at different times.\nas §2, §3, §4, §5, §6, §7, §8, §9, §10, §11, §12, §13, §14, §15, §16, §17, §18, §19, §20, §21\nAbsorbance was spectrophotometrically\nas §22, §23, §24"}, "[3]": {"test_system": "colon HT29 cancer cell line", "assay": "MTT cell viability assay", "procedure": "as §1\nlevels and at different times.\nas §2, §3, §4, §5, §6, §7, §8, §9, §10, §11, §12, §13, §14, §15, §16, §17, §18, §19, §20, §21\nAbsorbance was spectrophotometrically\nas §22, §23, §24"}}}
{"smiles": "NS(=O)(=O)c1ccc(NC(=O)Nc2ncc(-c3ccc(F)cc3)s2)cc1", "note": "[Compound I]", "values": [{"measurement": "Ki", "setting": "hCA XII", "value": 0.0276, "unit": "µM"}, {"measurement": "Ki", "setting": "hCA IX", "value": 0.0136, "unit": "µM"}]}
{"smiles": "COc1cccc2c1C(=O)c1c(O)c3c(c(O)c1C2=O)C[C@@](O)(C(=O)CO)C[C@@H]3O[C@H]1C[C@H](N)[C@H](O)[C@H](C)O1", "note": "[Doxorubicin, doxorubicin, reference compound]", "values": [{"measurement": "IC50", "setting": "[1]; RXF393, MTT", "value": "13.5 ± 0.82", "unit": "µM"}, {"measurement": "Cytotoxicity IC50 SD", "setting": "[1]; RXF 393, Table S2", "value": "13.54 ± 0.82", "unit": "µg/mL"}, {"measurement": "% viability", "setting": "[1]; 0.4ug, MTT", "value": 78.52, "unit": "%"}, {"measurement": "% viability", "setting": "[1]; 1.6ug, MTT", "value": 69.673, "unit": "%"}, {"measurement": "% viability", "setting": "[1]; 6.25ug, MTT", "value": 54.451, "unit": "%"}, {"measurement": "% viability", "setting": "[1]; 25ug, MTT", "value": 43.883, "unit": "%"}, {"measurement": "% viability", "setting": "[1]; 100ug, MTT", "value": 34.98, "unit": "%"}, {"measurement": "IC50 at 24 h", "setting": "in vitro", "value": "18.1 ± 0.59", "unit": "µM"}, {"measurement": "viability at 24 h, 0.4 µM", "setting": "in vitro", "value": 74.5, "unit": "%"}, {"measurement": "viability at 24 h, 1.6 µM", "setting": "in vitro", "value": 63.2, "unit": "%"}, {"measurement": "viability at 24 h, 6.3 µM", "setting": "in vitro", "value": 52.4, "unit": "%"}, {"measurement": "viability at 24 h, 25 µM", "setting": "in vitro", "value": 46.6, "unit": "%"}, {"measurement": "viability at 24 h, 100 µM", "setting": "in vitro", "value": 38.4, "unit": "%"}, {"measurement": "Apoptosis Late", "setting": "renal RXF393 cell line; DMSO control 0.18", "value": 17.36, "unit": "%"}, {"measurement": "Apoptosis Early", "setting": "renal RXF393 cell line; DMSO control 0.42", "value": 12.64, "unit": "%"}, {"measurement": "Necrosis", "setting": "renal RXF393 cell line; DMSO control 1.16", "value": 9.02, "unit": "%"}, {"measurement": "DNA Content %G2/M", "setting": "RXF393 cells; DMSO control 19.51", "value": 11.01, "unit": "%"}, {"measurement": "DNA Content %S", "setting": "RXF393 cells; DMSO control 28.54", "value": 16.81, "unit": "%"}, {"measurement": "DNA Content %G0-G1", "setting": "RXF393 cells; DMSO control 51.95", "value": 72.18, "unit": "%"}, {"measurement": "IC50", "setting": "[2]; LOX IMVI", "value": "6.08 ± 0.32", "unit": "µM"}, {"measurement": "% viability", "setting": "[2]; 0.4uM", "value": 69.98, "unit": "%"}, {"measurement": "% viability", "setting": "[2]; 1.6uM", "value": 58.61, "unit": "%"}, {"measurement": "% viability", "setting": "[2]; 6.3uM", "value": 49.41, "unit": "%"}, {"measurement": "% viability", "setting": "[2]; 25uM", "value": 41.5165, "unit": "%"}, {"measurement": "% viability", "setting": "[2]; 100uM", "value": 29.521, "unit": "%"}, {"measurement": "IC50", "setting": "[3]; HT29", "value": "13.5 ± 0.71", "unit": "µM"}, {"measurement": "% viability", "setting": "[3]; HT-29, 0.4uM", "value": 79.36, "unit": "%"}, {"measurement": "% viability", "setting": "[3]; HT-29, 1.6uM", "value": 68.43, "unit": "%"}, {"measurement": "% viability", "setting": "[3]; HT-29, 6.3uM", "value": 57.377, "unit": "%"}, {"measurement": "% viability", "setting": "[3]; HT-29, 25uM", "value": 45.5981, "unit": "%"}, {"measurement": "% viability", "setting": "[3]; HT-29, 100uM", "value": 31.937, "unit": "%"}]}
